Source: patent US4988687A, “Cephalosporin derivatives, and antibacterial agents” (priority 1986, dated 1991)
Values after ≈ are worked out from the molar mass of the structure shown. Like-named read-outs stand apart in the source and are kept apart here.

Columns and labels:
Ps. aeruginosa IFO3445 = experiment: agar plate dilution method, MIC against Ps. aeruginosa IFO3445; assay type: cell-based; details: Pseudomonas aeruginosa, read-out: Minimum Inhibitory Concentration (MIC)
Procedure: (§1) The in vitro antibacterial activities of the compounds of the present invention against various microorganisms, were measured by the following agar plate dilution method. One platinum loopfull of each test microorganism incubated overnight in Mueller Hinton broth, was inoculated to Mueller Hinton agar (inoculum size: 10^6 CFU/ml) Such culture media containing various antibiotics in various concentrations were prepared After incubation at 37° C. for 16 hours, the minimum inhibitory concentrations (MIC: μg/ml) were measured. As comparative compounds, cefotaxime, oeftazidime and the compounds disclosed in Example 2 of Japanese Unexamined Patent Publication No. 215690/1985 e.g. sodium 7-[2-(2-aminothiazol-4-yl)-2-ethoxyiminoacetamido]-3-(1-carboxylatemethylpyridinio-4-yl)thiomethyl-3-cephem-4-carboxylate (hereinafter referred to simply as "Reference Example A") were employed.

Ps. aeruginosa AK 109 = experiment: agar plate dilution method, MIC against Ps. aeruginosa AK 109; assay type: cell-based; details: Pseudomonas aeruginosa, AK109, 16 h, read-out: Minimum Inhibitory Concentration (MIC)
Procedure: as §1

P. vulgaris No. 33 = experiment: agar plate dilution method, MIC against P. vulgaris No. 33; assay type: cell-based; details: Proteus vulgaris, read-out: Minimum Inhibitory Concentration (MIC)
Procedure: as §1

E. coli CSH2 (RK1) = experiment: agar plate dilution method, MIC against E. coli CSH2 (RK1); assay type: cell-based; details: Escherichia coli, 16 h, read-out: Minimum Inhibitory Concentration (MIC)
Procedure: as §1

S. marcescens IAM 1184 = experiment: agar plate dilution method, MIC against S. marcescens IAM 1184; assay type: cell-based; details: Serratia marcescens, read-out: Minimum Inhibitory Concentration (MIC)
Procedure: as §1

E. coli CSH(RE45) = experiment: agar plate dilution method, MIC against E. coli CSH(RE45); assay type: cell-based; details: Escherichia coli, 16 h, read-out: Minimum Inhibitory Concentration (MIC)
Procedure: as §1

Ps. aeruginosa AKR17 = experiment: agar plate dilution method, MIC against Ps. aeruginosa AKR17; assay type: cell-based; details: Pseudomonas aeruginosa; Ps. aeruginosa AKR17; 10^6 CFU/ml, 37° C., 16 hours; read-out: Minimum Inhibitory Concentration (MIC)
Procedure: as §1

M. luteus ATCC9341 = experiment: agar plate dilution method, MIC against M. luteus ATCC9341; assay type: cell-based; details: Micrococcus luteus, read-out: Minimum Inhibitory Concentration (MIC)
Procedure: as §1

S. aureus 209P NIHJ-JC1 = experiment: agar plate dilution method, MIC against S. aureus 209P NIHJ-JC1; assay type: cell-based; details: Staphylococcus aureus, read-out: Minimum Inhibitory Concentration (MIC)
Procedure: as §1

E. cloacae Nek 39 = experiment: agar plate dilution method, MIC against E. cloacae Nek 39; assay type: cell-based; details: Enterobacter cloacae, read-out: Minimum Inhibitory Concentration (MIC)
Procedure: as §1

E. cloacae 963 = experiment: agar plate dilution method, MIC against E. cloacae 963; assay type: cell-based; details: read-out: Minimum Inhibitory Concentration (MIC)
Procedure: as §1

C. freundii GN346/16 = experiment: agar plate dilution method, MIC against C. freundii GN346/16; assay type: cell-based; details: Citrobacter freundii, read-out: Minimum Inhibitory Concentration (MIC)
Procedure: as §1

C. freundii GN346 = experiment: agar plate dilution method, MIC against C. freundii GN346; assay type: cell-based; details: Citrobacter freundii, read-out: Minimum Inhibitory Concentration (MIC)
Procedure: as §1

S. marcescens No. 16-2 = experiment: agar plate dilution method, MIC against S. marcescens No. 16-2; assay type: cell-based; details: Serratia marcescens, NO.162, 16 h, read-out: Minimum Inhibitory Concentration (MIC)
Procedure: as §1

P. vulgaris HX-19 = experiment: agar plate dilution method, MIC against P. vulgaris HX-19; assay type: cell-based; details: Proteus vulgaris, HX19, 16 h, read-out: Minimum Inhibitory Concentration (MIC)
Procedure: as §1

A. calcoaceticus No. 4 = experiment: agar plate dilution method, MIC against A. calcoaceticus No. 4; assay type: cell-based; details: Acinetobacter calcoaceticus, NO.4, 16 h, read-out: Minimum Inhibitory Concentration (MIC)
Procedure: as §1

K. pneumoniae PCI-602 = experiment: agar plate dilution method, MIC against K. pneumoniae PCI-602; assay type: cell-based; details: Klebsiella pneumoniae, PCI602, 16 h, read-out: Minimum Inhibitory Concentration (MIC)
Procedure: as §1

Ps. maltophilia GN 12873 = experiment: agar plate dilution method, MIC against Ps. maltophilia GN 12873; assay type: cell-based, Pseudomonas maltophilia; details: Stenotrophomonas maltophilia, read-out: Minimum Inhibitory Concentration (MIC)
Procedure: as §1

M. morganii GN5407 = experiment: agar plate dilution method, MIC against M. morganii GN5407; assay type: cell-based; details: Morganella morganii, read-out: Minimum Inhibitory Concentration (MIC)
Procedure: as §1

E. coli NIHJ JC2 = experiment: agar plate dilution method, MIC against E. coli NIHJ JC2; assay type: cell-based; details: Escherichia coli, read-out: Minimum Inhibitory Concentration (MIC)
Procedure: as §1

Ps. cepacia 23 = experiment: agar plate dilution method, MIC against Ps. cepacia 23; assay type: cell-based, Pseudomonas cepacia; details: Burkholderia cepacia; Ps. cepacia 23; 10^6 CFU/ml, 37° C., 16 hours; read-out: Minimum Inhibitory Concentration (MIC)
Procedure: as §1

K. oxytoca GN10650 = experiment: agar plate dilution method, MIC against K. oxytoca GN10650; assay type: cell-based; details: Klebsiella oxytoca, GN10650, 16 h, read-out: Minimum Inhibitory Concentration (MIC)
Procedure: as §1

K. pneumoniae No. 42 = experiment: agar plate dilution method, MIC against K. pneumoniae No. 42; assay type: cell-based; details: Klebsiella pneumoniae, read-out: Minimum Inhibitory Concentration (MIC)
Procedure: as §1

S. epidermidis IAM12012 = experiment: agar plate dilution method, MIC against S. epidermidis IAM12012; assay type: cell-based; details: Staphylococcus epidermidis, read-out: Minimum Inhibitory Concentration (MIC)
Procedure: as §1

E. coli GN5482 = experiment: agar plate dilution method, MIC against E. coli GN5482; assay type: cell-based; details: Escherichia coli, read-out: Minimum Inhibitory Concentration (MIC)
Procedure: as §1

S. aureus JS1 = experiment: agar plate dilution method, MIC against S. aureus JS1; assay type: cell-based; details: Staphylococcus aureus, JS1, 16 h, read-out: Minimum Inhibitory Concentration (MIC)
Procedure: as §1

S. aureus BB5703 = experiment: agar plate dilution method, MIC against S. aureus BB5703; assay type: cell-based; details: Staphylococcus aureus, BB5703, 16 h, read-out: Minimum Inhibitory Concentration (MIC)
Procedure: as §1

SMILES: CC(C)(O/N=C(\C(=O)N[C@@H]1C(=O)N2C(C(=O)[O-])=C(C[n+]3ccccc3)CS[C@H]12)c1csc(N)n1)C(=O)O [Ceftazidime, ceftazidime, reference compound]
- MIC (Ps. aeruginosa IFO3445; Ps. aeruginosa IFO3445, 10^6 CFU/ml, 37° C., 16 hours): 0.39 µg/mL (≈ 0.714 µM)
- MIC (Ps. aeruginosa AK 109): 1.56 µg/mL (≈ 2.85 µM)
- MIC (P. vulgaris No. 33; NO.33, 16 h): 0.05 µg/mL (≈ 0.0915 µM)
- MIC (E. coli CSH2 (RK1)): 0.1 µg/mL (≈ 0.183 µM)
- MIC (S. marcescens IAM 1184; IAM1184, 16 h): 0.025 µg/mL (≈ 0.0457 µM)
- MIC (E. coli CSH(RE45)): 0.1 µg/mL (≈ 0.183 µM)
- MIC (Ps. aeruginosa AKR17): > 100 µg/mL
- MIC (M. luteus ATCC9341; ATCC9341, 16 h): 0.78 µg/mL (≈ 1.43 µM)
- MIC (S. aureus 209P NIHJ-JC1; 16 h): 6.25 µg/mL (≈ 11.4 µM)
- MIC (E. cloacae Nek 39; NEK39, 16 h): 3.12 µg/mL (≈ 5.71 µM)
- MIC (E. cloacae 963; Enterobacter cloacae, 963, 16 h): 0.2 µg/mL (≈ 0.366 µM)
- MIC (C. freundii GN346/16; GN346, 16 h): 0.2 µg/mL (≈ 0.366 µM)
- MIC (C. freundii GN346; GN346, 16 h): 25 µg/mL (≈ 45.7 µM)
- MIC (S. marcescens No. 16-2): 1.56 µg/mL (≈ 2.85 µM)
- MIC (P. vulgaris HX-19): 0.025 µg/mL (≈ 0.0457 µM)
- MIC (A. calcoaceticus No. 4): 6.25 µg/mL (≈ 11.4 µM)
- MIC (K. pneumoniae PCI-602): < 0.006 µg/mL
- MIC (Ps. maltophilia GN 12873; GN12873, 16 h): 100 µg/mL (≈ 183 µM)
- MIC (M. morganii GN5407; GN5407, 16 h): 0.1 µg/mL (≈ 0.183 µM)
- MIC (E. coli NIHJ JC2; NIHJJC2, 16 h): 0.2 µg/mL (≈ 0.366 µM)
- MIC (Ps. cepacia 23): 0.78 µg/mL (≈ 1.43 µM)
- MIC (K. oxytoca GN10650): 0.2 µg/mL (≈ 0.366 µM)
- MIC (K. pneumoniae No. 42; NO.42, 16 h): 0.39 µg/mL (≈ 0.714 µM)
- MIC (S. epidermidis IAM12012; IAM12012, 16 h): 3.12 µg/mL (≈ 5.71 µM)
- MIC (E. coli GN5482; GN5482, 16 h): 1.56 µg/mL (≈ 2.85 µM)
- MIC (S. aureus JS1): 25 µg/mL (≈ 45.7 µM)
- MIC (S. aureus BB5703): 12.5 µg/mL (≈ 22.9 µM)

SMILES: Nc1nc(C(=NOCc2ccc(O)c(O)c2)C(=O)NC2C(=O)N3C(C(=O)[O-])=C(CSc4cc[n+](CC(=O)O)cc4)CSC23)cs1 (stereo not drawn) [Example 4, 7-[2-(2-aminothiazol-4-yl)-2-(3,4-dihydroxybenzyloxyimino)acetamido]-3-(1-carboxymethylpyridinio-4-yl)thiomethyl-3-cephem-4-carboxylate (syn-isomer)]
- MIC (Ps. aeruginosa IFO3445; IFO3445, 16 h): 3.12 µg/mL (≈ 4.64 µM)
- MIC (Ps. aeruginosa AK 109): 1.56 µg/mL (≈ 2.32 µM)
- MIC (P. vulgaris No. 33; P. vulgaris No. 33 (lactamase-producing strain), 10^6 CFU/ml, 37° C., 16 hours): 0.2 µg/mL (≈ 0.297 µM)
- MIC (E. coli CSH2 (RK1)): 0.05 µg/mL (≈ 0.0743 µM)
- MIC (S. marcescens IAM 1184; IAM1184, S. marcescens IAM 1184, 10^6 CFU/ml, 37° C., 16 hours): 0.1 µg/mL (≈ 0.149 µM)
- MIC (E. coli CSH(RE45)): 0.025 µg/mL (≈ 0.0372 µM)
- MIC (Ps. aeruginosa AKR17): > 100 µg/mL
- MIC (M. luteus ATCC9341; M. luteus ATCC9341, 10^6 CFU/ml, 37° C., 16 hours): 0.39 µg/mL (≈ 0.58 µM)
- MIC (S. aureus 209P NIHJ-JC1; S. aureus 209P NIHJ-JC1, 10^6 CFU/ml, Mueller Hinton agar, 37° C., 16 hours): 0.39 µg/mL (≈ 0.58 µM)
- MIC (E. cloacae Nek 39; NEK39, E. cloacae Nek 39 (lactamase-producing strain), 10^6 CFU/ml, 37° C., 16 hours): 0.78 µg/mL (≈ 1.16 µM)
- MIC (E. cloacae 963; Enterobacter cloacae, E. cloacae 963, 10^6 CFU/ml, 37° C., 16 hours): 0.1 µg/mL (≈ 0.149 µM)
- MIC (C. freundii GN346/16; C. freundii GN346/16, 10^6 CFU/ml, 37° C., 16 hours): 0.2 µg/mL (≈ 0.297 µM)
- MIC (C. freundii GN346; C. freundii GN346 (lactamase-producing strain), 10^6 CFU/ml, 37° C., 16 hours): 6.25 µg/mL (≈ 9.29 µM)
- MIC (S. marcescens No. 16-2): 6.25 µg/mL (≈ 9.29 µM)
- MIC (P. vulgaris HX-19): 0.025 µg/mL (≈ 0.0372 µM)
- MIC (A. calcoaceticus No. 4): 1.56 µg/mL (≈ 2.32 µM)
- MIC (K. pneumoniae PCI-602): < 0.006 µg/mL
- MIC (Ps. maltophilia GN 12873; GN12873, Ps. maltophilia GN 12873 (lactamase-producing strain), 10^6 CFU/ml, 37° C., 16 hours): > 100 µg/mL
- MIC (M. morganii GN5407; M. morganii GN5407 (lactamase-producing strain), 10^6 CFU/ml, 37° C., 16 hours): 0.1 µg/mL (≈ 0.149 µM)
- MIC (E. coli NIHJ JC2; NIHJJC2, E. coli NIHJ JC2, 10^6 CFU/ml, 37° C., 16 hours): 0.05 µg/mL (≈ 0.0743 µM)
- MIC (Ps. cepacia 23): 0.39 µg/mL (≈ 0.58 µM)
- MIC (K. oxytoca GN10650): 0.78 µg/mL (≈ 1.16 µM)
- MIC (K. pneumoniae No. 42; K. pneumoniae No. 42 (lactamase-producing strain), 10^6 CFU/ml, 37° C., 16 hours): 0.2 µg/mL (≈ 0.297 µM)
- MIC (S. epidermidis IAM12012; S. epidermidis IAM12012, 10^6 CFU/ml, 37° C., 16 hours): 0.78 µg/mL (≈ 1.16 µM)
- MIC (E. coli GN5482; E. coli GN5482 (lactamase-producing strain), 10^6 CFU/ml, 37° C., 16 hours): 0.39 µg/mL (≈ 0.58 µM)
- MIC (S. aureus JS1): 6.25 µg/mL (≈ 9.29 µM)
- MIC (S. aureus BB5703): 3.12 µg/mL (≈ 4.64 µM)
